Assay results from patent US20210330611A1, “THERAPY FOR NEUROLOGICAL DISEASES/DISORDERS” (priority 2020, published 2021).
Like-named read-outs stand apart in the source and are kept apart here.

Columns and labels:
[1] = tested on: fibrin-induced microglia activation; test: Image-based assay of fibrin-induced microglia activation (HTS and dose response); type: cell-based, rat; settings: for inhibition at 10 µM / Fibrin % inhibition: primary microglia HTS; for inhibition at 10 µM: read-out: Fibrin % inhibition
[2] = tested on: LPS-induced microglia activation; test: Image-based assay of LPS-induced microglia activation (HTS and dose response); type: cell-based, rat; settings: for inhibition at 10 µM / LPS % inhibition: primary microglia HTS; for inhibition at 10 µM: read-out: LPS % inhibition
[3] = tested on: fibrin- and LPS-induced microglia activation; test: cells; type: cell-based, rat; settings: for inhibition at 10 µM: Rattus norvegicus
in vitro [4] = settings: rat, Cell Toxicity IC50 (uM) [cFib assay]
in vitro [5] = settings: rat
primary rat microglia [6] = test: Cell toxicity (dead cells, size <150 μm2) in LPS assay; settings: for IC50: read-out: Cell Toxicity IC50 (uM) [LPS assay]
primary rat microglia [7] = tested on: primary rat microglia
primary rat microglia [8] = tested on: primary rat microglia; remark: listed apart in the source
primary rat microglia [9] = test: Cell toxicity (dead cells, size <150 μm2) in coated fibrin (cFib) assay;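 as to Fibrin % cell toxicity: share of dead cells sized under 150 µm2 at 10 µM in fibrin-stimulated microglia HTS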
[10] = Rattus norvegicus, Microglia, 48 h, Table 1, dose response 0.001-20 μM, triplicates, primary rat microglia, 48 h, read-out: Fibrin IC50
[11] = Rattus norvegicus, Microglia, dose response, fibrin-induced microglia activation, read-out: Fibrin IC50
[12] = Rattus norvegicus, Microglia, fibrin-induced microglia activation, dose response, read-out: Fibrin IC50 (uM) (Suppl. Table 7)
[13] = Rattus norvegicus, Microglia, fibrin stimulation, increased cell size (>800 μm^2) as marker of activation
[14] = Rattus norvegicus, Microglia, 48 h, Table 1, dose response 0.001-20 μM, triplicates, primary rat microglia, 48 h, read-out: LPS IC50
[15] = Rattus norvegicus, Microglia, 48 h, LPS stimulation, increased cell size (>800 μm^2) as marker of activation
[16] = Rattus norvegicus, Microglia, LPS-induced microglia activation, dose response, read-out: LPS IC50 (uM) (Suppl. Table 7)
[17] = Rattus norvegicus, Microglia, dose response, LPS-induced microglia activation, read-out: LPS IC50
[18] = Microglia, HTS hit classification, read-out: Hit
[19] = quadrant by fibrin and LPS inhibition in HTS of 1907 compounds
[20] = fibrin stimulation, increased cell size (>800 μm^2) as marker of activation
[21] = LPS-induced microglia activation, dose response, read-out: LPS IC50 (uM) (Suppl. Table 7)
[22] = Table 1, dose response 0.001-20 μM, triplicates, primary rat microglia, 48 h, read-out: LPS IC50
[23] = dose response, LPS-induced microglia activation, read-out: LPS IC50
[24] = LPS stimulation, increased cell size (>800 μm^2) as marker of activation
[25] = HTS of 1907 compounds, quadrant by fibrin and LPS inhibition
[26] = hit classification in microglia HTS
[27] = read-out: Cell Toxicity IC50 (uM) [cFib assay], cFib assay
[28] = hit classification in microglia HTS, read-out: Cherry-picked Hit (Suppl. Table 7)

SMILES | Fibrin Selectivity [1] | Fibrin Selectivity (LOG10) [1] | IC50 [1, 10] [µM] | IC50 [1, 11] [µM] | IC50 [1, 12] [µM] | inhibition at 10 µM [1, 13] [%] | IC50 [2, 14] [µM] | inhibition at 10 µM [2, 15] [%] | IC50 [2, 16] [µM] | IC50 [2, 17] [µM] | inhibition at 10 µM [3, 18] [%] | Quadrant (FIG. 5b) ([3]; Table 1, screen at 10 μM) | Quadrant (FIG. 5b) ([3]; Table 3, screen at 10 μM) | Quadrant (FIG. 5b) [3, 19] | IC50 (in vitro [4]; cFib assay) [µM] | IC50 (in vitro [5]) [nM] | IC50 (primary rat microglia [6]; LPS assay) [µM] | Fibrin % inhibition [1, 20] [%] | IC50 [2, 21] [µM] | Quadrant (FIG. 5b) [3, 25] | also measured
C[C@]12C=CC(=O)C=C1CC[C@H]1[C@@H]3C[C@@H](O)[C@](O)(C(=O)CO)[C@@]3(C)C[C@H](O)[C@@]12F [Triamcinolone, reference compound] | 10 | 1.00 | 0.04 | 0.04 | 0.04 | 107 | 0.4 | 99 | 0.4 | 0.4 | > 50 | Q2 | Q2 | Q2 | > 20 | > 20000 | > 20 |  |  |  | IC50 ([1]; Rattus norvegicus, Microglia, Table 3, read-out: Fibrin IC50 (uM) (Suppl. Table 7)): 0.04 µM; inhibition at 10 µM ([1]; Rattus norvegicus, Microglia, 10 μM, fibrin-stimulated, cell size >800 μm^2 as marker of activation): -2%; IC50 ([2]; Rattus norvegicus, Microglia, Table 3, read-out: LPS IC50 (uM) (Suppl. Table 7)): 0.4 µM; inhibition at 10 µM ([2]; Rattus norvegicus, Microglia, 10 μM, LPS-stimulated, cell size >800 μm^2 as marker of activation): -14%; inhibition at 10 µM ([3]; Microglia, Table 3, read-out: Cherry-picked Hit (Suppl. Table 7)): > 50%; IC50 (in vitro [4]; Table 3): > 20 µM
CC(=O)[C@@]1(O)CC[C@H]2[C@@H]3C=C(Cl)C4=CC(=O)[C@@H]5C[C@@H]5[C@]4(C)[C@H]3CC[C@@]21C [Cyproterone, reference compound] |  |  |  |  |  |  |  |  |  |  |  | Q3 |  | Q3 |  |  | > 20 | 51 | > 20 | Q3 | IC50 [2, 22]: > 20 µM; IC50 [2, 23]: > 20 µM; LPS % inhibition [2, 24]: 5%; Hit ([3]; HTS hit classification): HIT (Hits were defined as molecules that exhibited greater than 50% inhibition of either fibrin or LPS activation); Cherry-picked Hit (Suppl. Table 7) [3, 26]: HIT (Hits were defined as molecules that exhibited greater than 50% inhibition of either fibrin or LPS activation); Fibrin % cell toxicity (primary rat microglia [7]): 1%; LPS % cell toxicity (primary rat microglia [8]): 0%; IC50 (primary rat microglia [9]; [27]): > 20 µM
CC[C@@H](C(=O)[C@@H](C)[C@@H](O)[C@H](C)[C@@H]1O[C@@H]([C@@H](CC)C(=O)O)CC[C@@H]1C)[C@H]1O[C@]2(C=C[C@@H](O)[C@]3(CC[C@@](C)([C@H]4CC[C@](O)(CC)[C@H](C)O4)O3)O2)[C@H](C)C[C@@H]1C [Salinomycin, sodium, reference compound] |  |  | 2 | 2 | 2 | 100 | 2 | 101 | 2 | 2 | > 50 | Q2 |  | Q2 | > 20 |  |  |  |  | Q2 | inhibition at 10 µM [3, 28]: > 50%; Activity ([3]; Table 7, fib = fibrin, LPS, tox = toxicity, sodium): fib/LPS; LPS % cell toxicity (primary rat microglia [6]; primary microglia HTS, LPS stimulation, decreased size (<150 μm^2) as marker of toxicity): 1%; IC50 (primary rat microglia [9]; Rattus norvegicus, Microglia, read-out: dead_IC50 (uM), Table 7, fibrin or LPS assay not specified): 3.86 µM; Fibrin % cell toxicity (primary rat microglia [9]; primary microglia HTS, fibrin stimulation, decreased size (<150 μm^2) as marker of toxicity): 3%
COc1cc2c(cc1O)CC[C@@H]1[C@@H]2CC[C@]2(C)[C@@H](O)CC[C@@H]12 [2-methoxyestradiol, reference compound] | 2 | 0.21 |  |  |  |  |  |  |  |  |  | Q2 | Q2 | Q2 |  |  | > 20 | 63 | 5 | Q2 | IC50 ([1]; Table 1, dose response 0.001-20 μM, triplicates, primary rat microglia, 48 h, read-out: Fibrin IC50): 3 µM; IC50 ([1]; Table 3, read-out: Fibrin IC50 (uM) (Suppl. Table 7)): 3 µM; IC50 ([1]; dose response, fibrin-induced microglia activation, read-out: Fibrin IC50): 3 µM; IC50 ([1]; fibrin-induced microglia activation, dose response, read-out: Fibrin IC50 (uM) (Suppl. Table 7)): 3 µM; IC50 [2, 22]: 5 µM; IC50 ([2]; Table 3, read-out: LPS IC50 (uM) (Suppl. Table 7)): 5 µM; IC50 [2, 23]: 5 µM; LPS % inhibition [2, 24]: 65%; Hit ([3]; HTS hit classification): HIT (Hits were defined as molecules that exhibited greater than 50% inhibition of either fibrin or LPS activation); Cherry-picked Hit (Suppl. Table 7) ([3]; Table 3): HIT (Hits were defined as molecules that exhibited greater than 50% inhibition of either fibrin or LPS activation); Cherry-picked Hit (Suppl. Table 7) [3, 26]: HIT (Hits were defined as molecules that exhibited greater than 50% inhibition of either fibrin or LPS activation); Fibrin % cell toxicity (primary rat microglia [7]): 2%; LPS % cell toxicity (primary rat microglia [8]): 2%; IC50 (primary rat microglia [6]; Table 3): > 20 µM; IC50 (primary rat microglia [9]; read-out: Cell Toxicity IC50 (uM) [cFib assay], Table 3): > 20 µM; IC50 (primary rat microglia [9]; [27]): > 20 µM
CC1(C)O[C@@H]2C[C@H]3[C@@H]4C[C@H](F)C5=CC(=O)C=C[C@]5(C)[C@H]4[C@@H](O)C[C@]3(C)[C@]2(C(=O)CO)O1 [Flunisolide, reference compound] |  |  | < 0.001 | < 0.001 | < 0.001 | 104 | < 0.001 | 101 | < 0.001 | < 0.001 | > 50 | Q2 |  | Q2 | > 20 | > 20000 |  |  |  | Q2 | inhibition at 10 µM [3, 28]: > 50%
